Data reported in US8846713B2, “Fused heterocyclic compounds as phosphodiesterases (PDEs) inhibitors” (Takeda Pharmaceutical Company Limited, priority 2010, dated 2014).

Assays:
[1] = biological target: T1, Human PDE10A enzyme (Homo sapiens, UniProt Q9Y233); assay: PDE enzyme inhibition, SPA (Scintillation Proximity Assay) with [3H]cGMP; assay type: biochemical; conditions: [3H]cGMP substrate; for inhibition at 1 µM: compound 1 μM, read-out: Percent inhibition (1 μM); for inhibition at 10 µM: compound 10 μM, read-out: Percent inhibition (10 μM)
T1 construct: transfected with the full-length gene; His-tag; made in house; host or cells: Sf9 or COS-7 cells
T1 sequence (Q9Y233 267-1055): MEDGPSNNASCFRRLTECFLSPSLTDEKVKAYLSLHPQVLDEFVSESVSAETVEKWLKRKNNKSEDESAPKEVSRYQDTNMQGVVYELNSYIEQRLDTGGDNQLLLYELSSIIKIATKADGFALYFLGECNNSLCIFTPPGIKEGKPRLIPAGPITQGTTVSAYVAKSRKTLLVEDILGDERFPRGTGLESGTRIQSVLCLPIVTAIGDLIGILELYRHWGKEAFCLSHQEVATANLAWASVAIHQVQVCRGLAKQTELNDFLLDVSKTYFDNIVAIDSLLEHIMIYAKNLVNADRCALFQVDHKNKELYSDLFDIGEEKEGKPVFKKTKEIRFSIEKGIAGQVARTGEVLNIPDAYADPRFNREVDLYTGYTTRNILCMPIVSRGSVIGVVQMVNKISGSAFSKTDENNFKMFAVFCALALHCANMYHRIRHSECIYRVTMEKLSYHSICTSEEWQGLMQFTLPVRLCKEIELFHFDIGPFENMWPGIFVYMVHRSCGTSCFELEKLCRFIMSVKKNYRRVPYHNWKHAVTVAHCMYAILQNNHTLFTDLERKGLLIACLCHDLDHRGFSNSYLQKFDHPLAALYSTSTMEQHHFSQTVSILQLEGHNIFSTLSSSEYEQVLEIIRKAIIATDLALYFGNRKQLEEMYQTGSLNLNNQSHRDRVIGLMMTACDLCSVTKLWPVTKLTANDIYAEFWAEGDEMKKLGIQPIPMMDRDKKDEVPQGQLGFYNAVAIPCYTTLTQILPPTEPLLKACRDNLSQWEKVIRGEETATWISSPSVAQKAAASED
Experimental: Human PDE10A enzyme was generated from Sf9 or COS-7 cells transfected with the full-length gene. Cloned enzyme was extracted from homogenized cell pellets. The extracted enzyme from sf9 cells was partially purified using His-tag affinity column. The enzyme was stored at −70° C. until use. PDE activity was measured using a SPA (Scintillation Proximity Assay) (GE Healthcare). To evaluate the inhibitory activity, 10 μL of serial diluted compounds were incubated with 20 μL of PDE enzyme in assay buffer (50 mM HEPES-NaOH, 8.3 mM MgCl2, 1.7 mM EGTA, 0.1% BSA (pH 7.4)) for 30 min. at room temperature. Final concentration of DMSO in the assay was 1 percent as compounds were tested in duplicate in 96-well half-area plates (Corning). To start the reaction, 10 μL of substrate [^3H] cGMP (25 or 50 nM; enclosed in SPA kits from GE Healthcare or purchased from PerkinElmer, respectively) was added for a final assay volume of 40 μL. After 60 min incubation at room temperature, yttrium SPA beads containing Zinc sulphate were added (20 μL at 6 mg/mL) to terminate the PDE reaction. After being settled for 60 min, assay plates were counted in a scintillation counter (PerkinElmer) to allow calculation of inhibition rate. Inhibition rate was calculated on the basis of 0% control wells with DMSO and 100% control wells without enzyme.

| melting point | inhibition at 1 µM [1] | inhibition at 10 µM [1] | Structure (SMILES) |
| --- | --- | --- | --- |
|  | 98% | 100% | CC(C)n1c(=O)n(-c2ccc(Oc3nc4cccnc4n3C)cc2)c2ncc(Cl)cc21 [Example 126, 6-chloro-1-(1-methylethyl)-3-{4-[(3-methyl-3H-imidazo[4,5-b]pyridin-2-yl)oxy]phenyl}-1,3-dihydro-2H-imidazo[4,5-b]pyridin-2-one] |
| 195 to 197 °C | 101% | 101% | CCn1c(=O)n(-c2ccc(Oc3nc4cccnc4n3C)cc2)c2ncc(OC(F)F)cc21 [Example 127, 6-(difluoromethoxy)-1-ethyl-3-{4-[(3-methyl-3H-imidazo[4,5-b]pyridin-2-yl)oxy]phenyl}-1,3-dihydro-2H-imidazo[4,5-b]pyridin-2-one] |
| 171 to 172 °C | 94% | 91% | CCn1c(=O)n(-c2ccc(Oc3nc4cccnc4n3C)cc2)c2ncc(OCC(F)F)cc21 [Example 128, 6-(2,2-difluoroethoxy)-1-ethyl-3-{4-[(3-methyl-3H-imidazo[4,5-b]pyridin-2-yl)oxy]phenyl}-1,3-dihydro-2H-imidazo[4,5-b]pyridin-2-one] |
| 178 to 179 °C | 89% | 96% | CCn1c(=O)n(-c2ccc(Oc3nc4cccnc4n3C)cc2)c2ncc(OCC(F)(F)F)cc21 [Example 129, 1-ethyl-3-{4-[(3-methyl-3H-imidazo[4,5-b]pyridin-2-yl)oxy]phenyl}-6-(2,2,2-trifluoroethoxy)-1,3-dihydro-2H-imidazo[4,5-b]pyridin-2-one] |
| 244 to 246 °C | 95% | 98% | CCn1c(=O)n(-c2ccc(Oc3nc4cccnc4n3C)cc2)c2nccc(C(F)(F)F)c21 [Example 130, 1-ethyl-3-{4-[(3-methyl-3H-imidazo[4,5-b]pyridin-2-yl)oxy]phenyl}-7-(trifluoromethyl)-1,3-dihydro-2H-imidazo[4,5-b]pyridin-2-one] |
|  | 104% | 107% | CCn1c(=O)n(-c2ccc(Oc3nc4ccccc4n3C)cc2)c2ncc(F)cc21 [Example 132, 1-ethyl-6-fluoro-3-{4-[(1-methyl-1H-benzimidazol-2-yl)oxy]phenyl}-1,3-dihydro-2H-imidazo[4,5-b]pyridin-2-one] |
|  | 104% | 101% | CCn1c(=O)n(-c2ccc(Oc3nc4cccnc4n3C)cc2)c2ncc(F)cc21 [Example 133, 1-ethyl-6-fluoro-3-{4-[(3-methyl-3H-imidazo[4,5-b]pyridin-2-yl)oxy]phenyl}-1,3-dihydro-2H-imidazo[4,5-b]pyridin-2-one] |
| 255 to 256 °C | 101% | 104% | CCn1c(=O)n(-c2ccc(N3CCn4c3nc3cccnc34)cc2)c2ncccc21 [Example 134, 3-[4-(2,3-dihydro-1H-imidazo[2′,1′:2,3]imidazo[4,5-b]pyridin-1-yl)phenyl]-1-ethyl-1,3-dihydro-2H-imidazo[4,5-b]pyridin-2-one] |
|  | 94% | 99% | Cc1ccnc2c1n(C)c(=O)n2-c1ccc(Oc2nc3cccnc3n2C)cc1 [Example 135, 1,7-dimethyl-3-{4-[(3-methyl-3H-imidazo[4,5-b]pyridin-2-yl)oxy]phenyl}-1,3-dihydro-2H-imidazo[4,5-b]pyridin-2-one] |
|  | 81% | 98% | CCn1c(=O)n(-c2ccc(Oc3nc4cccnc4n3C)cc2)c2c1c(C)cc[n+]2[O-] [Example 136, 1-ethyl-7-methyl-3-{4-[(3-methyl-3H-imidazo[4,5-b]pyridin-2-yl)oxy]phenyl}-1,3-dihydro-2H-imidazo[4,5-b]pyridin-2-one 4-oxide] |
|  | 88% | 98% | CCn1c(=O)n(-c2ccc(Oc3nc4cccnc4n3C)cc2)c2nccc(COC(C)=O)c21 [Example 137, (1-ethyl-3-{4-[(3-methyl-3H-imidazo[4,5-b]pyridin-2-yl)oxy]phenyl}-2-oxo-2,3-dihydro-1H-imidazo[4,5-b]pyridin-7-yl)methyl acetate] |
|  | 93% | 105% | CCn1c(=O)n(-c2ccc(Oc3nc4cccnc4n3C)cc2)c2nccc(CO)c21 [Example 138, 1-ethyl-7-(hydroxymethyl)-3-{4-[(3-methyl-3H-imidazo[4,5-b]pyridin-2-yl)oxy]phenyl}-1,3-dihydro-2H-imidazo[4,5-b]pyridin-2-one] |

The next lines start with the compound.

| Structure (SMILES) | melting point | inhibition at 1 µM [1] | inhibition at 10 µM [1] |
| --- | --- | --- | --- |
| CCn1c(=O)n(-c2ccc(Oc3nc4ccccc4n3C)cc2)c2ncccc21 [Example 19, 1-ethyl-3-{4-[(1-methyl-1H-benzimidazol-2-yl)oxy]phenyl}-1,3-dihydro-2H-imidazo[4,5-b]pyridin-2-one] | 184 to 186 °C |  |  |
| CCn1c(=O)n(-c2ccc(-n3ccn4c5ccccc5nc34)cc2)c2ncccc21 [Example 65, 1-Ethyl-3-[4-(1H-imidazo[1,2-a]benzimidazol-1-yl)phenyl]-1,3-dihydro-2H-imidazo[4,5-b]pyridin-2-one] | 220 to 221 °C | 100% | 101% |
| CCn1c(=O)n(-c2ccc(Oc3nc4ccccc4n3C)cc2)c2ncc(Cl)cc21 [Example 106, 6-chloro-1-ethyl-3-{4-[(1-methyl-1H-benzimidazol-2-yl)oxy]phenyl}-1,3-dihydro-2H-imidazo[4,5-b]pyridin-2-one] | 208 to 210 °C | 103% | 102% |
| CCn1c(=O)n(-c2ccc(Oc3nc4c(n3C)CCCC4)cc2)c2ncccc21 [Example 112, 1-ethyl-3-{4-[(1-methyl-4,5,6,7-tetrahydro-1H-benzimidazol-2-yl)oxy]phenyl}-1,3-dihydro-2H-imidazo[4,5-b]pyridin-2-one] |  | 99% | 98% |
| CCn1c(=O)n(-c2ccc(Oc3nc4ccncc4[nH]3)cc2)c2ncccc21 [Example 115, 1-ethyl-3-[4-(3H-imidazo[4,5-c]pyridin-2-yloxy)phenyl]-1,3-dihydro-2H-imidazo[4,5-b]pyridin-2-one] |  | 100% | 97% |
| CCn1c(=O)n(-c2ccc(Oc3nc4cccnc4n3C)cc2)c2ncc(C)cc21 [Example 118, 1-ethyl-6-methyl-3-{4-[(3-methyl-3H-imidazo[4,5-b]pyridin-2-yl)oxy]phenyl}-1,3-dihydro-2H-imidazo[4,5-b]pyridin-2-one] | 217 to 219 °C | 102% | 104% |
| CCn1c(=O)n(-c2ccc(Oc3nc4cccnc4n3C)cc2)c2ncc(OC)cc21 [Example 119, 1-ethyl-6-methoxy-3-{4-[(3-methyl-3H-imidazo[4,5-b]pyridin-2-yl)oxy]phenyl}-1,3-dihydro-2H-imidazo[4,5-b]pyridin-2-one] | 197 to 198 °C | 99% | 103% |
| CCn1c(=O)n(-c2ccc(Oc3nc4cccnc4n3C)cc2)c2nccc(C)c21 [Example 120, 1-ethyl-7-methyl-3-{4-[(3-methyl-3H-imidazo[4,5-b]pyridin-2-yl)oxy]phenyl}-1,3-dihydro-2H-imidazo[4,5-b]pyridin-2-one] |  | 109% | 106% |
| Cc1ccnc2c1n(C(C)C)c(=O)n2-c1ccc(Oc2nc3cccnc3n2C)cc1 [Example 121, 7-methyl-1-(1-methylethyl)-3-{4-[(3-methyl-3H-imidazo[4,5-b]pyridin-2-yl)oxy]phenyl}-1,3-dihydro-2H-imidazo[4,5-b]pyridin-2-one] | 270 to 271 °C | 103% | 99% |
| Cc1cnc2c(c1)n(C(C)C)c(=O)n2-c1ccc(Oc2nc3cccnc3n2C)cc1 [Example 122, 6-methyl-1-(1-methylethyl)-3-{4-[(3-methyl-3H-imidazo[4,5-b]pyridin-2-yl)oxy]phenyl}-1,3-dihydro-2H-imidazo[4,5-b]pyridin-2-one] | 252 °C | 109% | 107% |
| CC1(C)C(=O)N(c2ccc(Oc3cn4ccccc4n3)cc2)c2ncccc21 [Example 123, 1-[4-(imidazo[1,2-a]pyridin-2-yloxy)phenyl]-3,3-dimethyl-1,3-dihydro-2H-pyrrolo[2,3-b]pyridin-2-one] |  | 96% | 101% |
| CCn1c(=O)n(-c2ccc(Oc3cn4ccccc4n3)cc2)c2ncc(C)cc21 [Example 124, 1-ethyl-3-[4-(imidazo[1,2-a]pyridin-2-yloxy)phenyl]-6-methyl-1,3-dihydro-2H-imidazo[4,5-b]pyridin-2-one] |  | 99% | 99% |
| CCn1c(=O)n(-c2ccc(Oc3nc4ccccc4n3C)cc2)c2ncncc21 [Example 125, 7-ethyl-9-{4-[(1-methyl-1H-benzimidazol-2-yl)oxy]phenyl}-7,9-dihydro-8H-purin-8-one] | 242 to 243 °C | 99% | 101% |
